Source: article PMC12679539, “Synthesis and evaluation of nitroheterocyclic aromatic adamantane amides with trypanocidal activity. Part II” (RSC Medicinal Chemistry, 2025)

How the values were obtained:
[1] = test system: L. infantum promastigotes; assay: Activity against Leishmania infantum promastigotes (resazurin assay); type: cell-based, Leishmania infantum (MHOM/MA/67/ITMAP-263); conditions: for IC50: Leishmania infantum, promastigotes, 72 h, 95% CI in brackets; for SI (promastigotes) CC50/Li IC50: THP-1 CC50 / L. infantum promastigote IC50
Description: Promastigotes from the L. infantum strain (MHOM/MA/67/ITMAP-263) were cultivated in 5 ml of Schneider's insect medium, which was supplemented with 10% heat-inactivated fetal bovine serum (FBS), 200 U ml^−1 of penicillin/streptomycin, 6 μg ml^−1 of phenol red, and 5 mM of HEPES. The cultures were maintained in an incubator at 27 °C and diluted to a concentration of 2 × 10^5 cells per ml every 5 days. For the assays the parasites used were equivalent to late/log with two or three days of culture.
The efficacy of the compounds against L. infantum promastigotes was evaluated using a resazurin-based assay. Parasites were added to 100 μl of serial dilutions of the compounds in supplemented complete medium at a cell density of 5 × 10^5 ml^−1. As a quality control, a dose–response curve with the antileishmanial drug miltefosine was included in all assays. The final volume of each assay was 200 μl per well, and each condition was tested in duplicate. After a 72-hour incubation under specific conditions for each parasite, 20 μl of a 0.5 mM resazurin solution was added, and the plates were incubated for an additional 4 hours under the same conditions. Fluorescence was measured at 544 nm for excitation and 590 nm for emission using a Synergy 2 Multi-Mode Reader (Biotek, Winooski, VT, USA). Results were expressed as the percentage of parasite growth inhibition compared to controls (untreated parasites) and represent the average of at least three independent experiments. The effect was evaluated by determining the IC50 value (the concentration required to inhibit 50% growth), calculated using non-linear regression curves via GraphPad Prism version 8.1.1 for Windows (GraphPad Software, San Diego, CA, USA).

[2] = Cytotoxicity on THP-1-derived macrophages (MTT assay); type: cell-based; conditions: human, THP-1-derived macrophages (PMA-differentiated), value or interval
Description: The THP-1 cell line, a human leukemia line (ATCC® TIB-202™), was cultured in RPMI-1640 medium supplemented with 10% heat-inactivated fetal bovine serum (FBS), 2 mM. L-Glutamine, 100 IU mL^−1 penicillin/streptomycin, and 20 mM HEPES. The cells were maintained in a humidified incubator at 37 °C with 5% CO2. Subculturing was performed every three days, using 20 mL of media at a concentration of 2 × 10^5 cells per mL in a T75 flask. All cell culture reagents were purchased from Lonza Bioscience (Morrisville, NC).
The cytotoxicity of the compounds on THP-1-derived macrophages was evaluated using the colorimetric MTT assay (3-(4,5-dimethylthiazol-2-yl)-2,5-diphenyltetrazolium bromide), as described in Magoulas et al. (2021).[28] THP-1 cells were suspended in complete RPMI medium at a density of 1 × 10^6 cells per mL, and 100 μL of this suspension was seeded into each well of a 96-well plate. The cells were differentiated into macrophages by adding 40 ng mL^−1 of phorbol-myristate 13-acetate (PMA, Sigma, Saint Louis, MI, USA) for 24 hours, followed by replacement with fresh medium for an additional 24 hours. Subsequently, the cells were incubated with 100 μL of various compounds, diluted in complete RPMI medium, at concentrations ranging from 100 to 12.5 μM. Each condition was tested in triplicate. After 72 hours of incubation at 37 °C with 5% CO2, the medium was removed, and 200 μL of a 0.5 mg mL^−1 MTT solution, diluted in RPMI, was added to each well. The plates were incubated for an additional 4 hours. Following this incubation, 160 μL of the medium was removed and replaced with 160 μL of 2-propanol. Absorbance was measured at 570 nm using a Synergy 2 Multi-Mode Reader (Biotek, Winooski, VT, USA). Cytotoxicity was determined by presenting the CC50 (the concentration of the drug that reduces cell viability by 50%) interval or by calculating the CC50 value through non-linear regression analysis using GraphPad Prism version 8.1.1 for Windows (GraphPad Software, San Diego, CA, USA). The results represent the average of at least three independent experiments.

[3] = test system: bloodstream-form Trypanosoma brucei; assay: Activity against bloodstream-form Trypanosoma brucei (Alamar Blue growth inhibition); type: cell-based, Trypanosoma brucei (strain 427); conditions: for IC50 / IC90: Trypanosoma brucei, bloodstream form; for IC50: concentration that inhibits growth by 50%, read-out: T. brucei IC50; for IC90: concentration that inhibits growth by 90%, read-out: T. brucei IC90; for S.I. (selectivity index): ratio of IC50 values obtained with L6 cells and T. brucei
Description: (§1) Bloodstream form T. brucei (strain 427) were cultured at 37 °C in modified Iscove's medium. Trypanocidal activity was assessed by growing parasites in microtiter plates in the presence of various drug concentrations. […] The plates were incubated for 48 hours at 37 °C and 20 μL Alamar Blue was then added to each well. After an additional overnight incubation, the fluorescence was determined using a Gemini fluorescent plate reader (Molecular Devices). Inhibition of growth was calculated by comparison with control values and IC50 and IC90 values were determined in triplicate using linear regression analysis.

[4] = test system: L6 cells; assay: Cytotoxic activity against rat skeletal myoblast L6 cells (Alamar Blue); type: cell-based; conditions: 120 h, cytotoxicity, 5 days
Description: The cytotoxicity against mammalian cells was assessed using microtitre plates. Briefly, L6 cells (a rat skeletal muscle line) were seeded at 1 × 10^4 mL^−1 in 200 μL of RPMI-1640 growth medium (with 10% fetal calf serum) containing 7 different compound concentrations in a range previously established to encompass both the IC50 and IC90 values. The plates were incubated for 5 days at 37 °C and 20 μL Alamar Blue (Biosource Ltd, Wilton, North Yorkshire England.) was then added to each well. After an additional 8 hours incubation, the fluorescence was determined using a Gemini fluorescent plate reader (Molecular Devices). Inhibition of growth was calculated by comparison with control values and IC50 and IC90 values were determined in triplicate using linear regression analysis.

[5] = test system: T. cruzi epimastigotes; assay: Activity against Trypanosoma cruzi epimastigotes (Alamar Blue growth inhibition); type: cell-based, Trypanosoma cruzi (strain CL Brener); conditions: CL Brener
Description: as §1, with “Trypanocidal” for “Bloodstream form T. brucei (strain 427) were cultured at 37 °C in modified Iscove's medium. Trypanocidal”, “4 days” for “48 hours”, “28” for “37”, “Blue (Biosource UK Ltd)” for “Blue”, “3 days” for “overnight”

[6] = test system: T. cruzi intracellular amastigotes; assay: microbe, parasite or virus in culture; type: cell-based, Trypanosoma cruzi CL Brener PpyRE9h:mScarlet; conditions: Trypanosoma cruzi, 120 h; in HeLa cells, 5 days
Description: Assays were performed in 96-well black (clear bottom) microtitre plates (Corning Inc.). HeLa ^† cells were seeded at 10^4 per well, incubated for 3 days, and then infected with T. cruzi CL Brener PpyRE9h : mScarlet[25] culture form trypomastigotes (1 : 1 multiplicity of infection). After 16 hours, extracellular parasites were removed by washing in growth medium (×3), test compounds were added, and the plates incubated for 5 days. Fluorescence intensities were then determined using a BMG FLUOstar Omega plate reader (ex 545 nm, em 590 nm), and the data analysed using GraphPad Prism 9.0 software. The values were expressed as IC50/90 ± SD and are the mean of triplicate experiments.

| SMILES | IC50 [1] [µM] | SI (promastigotes) CC50/Li IC50 [1] | CC50 at 72 h [2] [nM] | IC50 [3] [nM] | IC90 [3] [nM] | S.I. (selectivity index) [3] | IC50 [4] [nM] | IC50 [5] [nM] | IC90 [5] [nM] | IC50 [6] [nM] | IC90 [6] [nM] |
| --- | --- | --- | --- | --- | --- | --- | --- | --- | --- | --- | --- |
| O=C(NCc1ccc(C23CC4CC(CC(C4)C2)C3)cc1)c1ccc([N+](=O)[O-])o1 [1a] | 3.46 | SI > 29 | > 100000 | – | – | – | – | – | – | – | – |
| O=C(NCCc1ccc(C23CC4CC(CC(C4)C2)C3)cc1)c1ccc([N+](=O)[O-])o1 [1b] | 0.66 | – | 50000 to 100000 | – | – | – | – | – | – | – | – |
| O=C(Nc1ccc(C2C3CC4CC(C3)CC2C4)cc1)c1ccc([N+](=O)[O-])o1 (stereo not shown) [2a, N-[4-(2-Adamantyl)phenyl]-5-nitrofuran-2-carboxamide] | 0.12 | – | 1560 to 6250 | 130 ± 40 | 330 ± 20 | 4 | 470 ± 70 | 550 ± 50 | 1200 ± 30 | – | – |
| O=C(NCCc1ccc(C2C3CC4CC(C3)CC2C4)cc1)c1ccc([N+](=O)[O-])o1 (stereo not shown) [2c, N-[4-(2-Adamantyl)phenethyl]-5-nitrofuran-2-carboxamide] | 0.05 | – | 3130 to 12500 | 42 ± 8 | 73 ± 8 | 42 | 1800 ± 200 | 280 ± 80 | 1200 ± 80 | – | – |
| O=C(Cn1ccnc1[N+](=O)[O-])Nc1ccc(C23CC4CC(CC(C4)C2)C3)cc1 [3a, N-[4-(1-Adamantyl)phenyl]-2-(2-nitro-1H-imidazol-1-yl)acetamide] | 0.7 | – | 25000 to 100000 | – | – | – | – | – | – | – | – |
| O=C(Cn1ccnc1[N+](=O)[O-])NCc1ccc(C23CC4CC(CC(C4)C2)C3)cc1 [3b, N-[4-(1-Adamantyl)benzyl]-2-(2-nitro-1H-imidazol-1-yl)acetamide] | 13.8 | – | 50000 to 100000 | – | – | – | – | – | – | – | – |
| O=C(Cn1ccnc1[N+](=O)[O-])NCCc1ccc(C23CC4CC(CC(C4)C2)C3)cc1 [3c, N-[4-(1-Adamantyl)phenethyl]-2-(2-nitro-1H-imidazol-1-yl) acetamide] | 22.1 | – | 50000 to 100000 | – | – | – | – | – | – | – | – |
| O=C(Cn1ccnc1[N+](=O)[O-])NCc1ccc(C2C3CC4CC(C3)CC2C4)cc1 (stereo not shown) [4b, N-[4-(2-Adamantyl)benzyl]-2-(2-nitro-1H-imidazol-1-yl)acetamide] | > 40 | – | > 100000 | – | – | – | – | – | – | – | – |
| O=C(Cn1ccnc1[N+](=O)[O-])NCCc1ccc(C2C3CC4CC(C3)CC2C4)cc1 (stereo not shown) [4c, N-[4-(2-Adamantyl)phenethyl]-2-(2-nitro-1H-imidazol-1-yl)acetamide] | 37.9 | SI > 1 | > 50000 | – | – | – | – | – | – | – | – |
| O=C(Cc1ccc(C23CC4CC(CC(C4)C2)C3)cc1)NCCn1ccnc1[N+](=O)[O-] [5a, 2-[4-(1-Adamantyl)phenyl]-N-[2-(2-nitro-1H-imidazol-1-yl)ethyl] acetamide] | 3.48 | – | 25000 to 50000 | – | – | – | – | – | – | – | – |
| O=C(Cc1ccc(C23CC4CC(CC(C4)C2)C3)cc1)NCCCn1ccnc1[N+](=O)[O-] [5b, 2-[4-(1-Adamantyl)phenyl]-N-[3-(2-nitro-1H-imidazol-1-yl)propyl] acetamide] | 4.81 | – | 50000 to 100000 | – | – | – | – | – | – | – | – |
| O=C(NCCn1cnc([N+](=O)[O-])n1)c1ccc(C23CC4CC(CC(C4)C2)C3)cc1 [6a, 4-(1-Adamantyl)-N-[2-(3-nitro-1H-1,2,4-triazol-1-yl)ethyl] benzamide] | 0.74 | – | 25000 to 50000 | 230 ± 50 | 360 ± 30 | 120 | 28000 ± 7000 | 540 ± 20 | 1200 ± 10 | 4880 ± 510 | 21400 ± 3400 |
| O=C(NCCCn1cnc([N+](=O)[O-])n1)c1ccc(C23CC4CC(CC(C4)C2)C3)cc1 [6d, 4-(1-Adamantyl)-N-[3-(3-nitro-1H-1,2,4-triazol-1-yl)propyl] benzamide] | 0.27 | – | 50000 to 100000 | 180 ± 50 | 310 ± 40 | 123 | 22000 ± 1000 | 450 ± 10 | 1100 ± 20 | 3730 ± 440 | 8420 ± 440 |
| O=C(CCc1ccc(C23CC4CC(CC(C4)C2)C3)cc1)NCCCn1cnc([N+](=O)[O-])n1 [6f, 3-[4-(1-Adamantyl)phenyl]-N-[3-(3-nitro-1H-1,2,4-triazol-1-yl)propyl]propanamide] | 0.39 | – | 50000 to 100000 | 140 ± 20 | 280 ± 10 | 134 | 19000 ± 2000 | 440 ± 20 | 910 ± 10 | 2440 ± 570 | 8230 ± 1780 |
| O=C(Nc1ccc(C23CC4CC(CC(C4)C2)C3)cc1)c1ccc([N+](=O)[O-])o1 [7a, N-[4-(1-Adamantyl)phenyl]-5-nitrofuran-2-carboxamide] | 0.76 | – | 6250 to 25000 | 91 ± 5 | 220 ± 10 | – | < 30 | > 25 | > 25 | – | – |
| O=C(Cn1cnc([N+](=O)[O-])n1)Nc1ccc(C23CC4CC(CC(C4)C2)C3)cc1 [7b, N-[4-(1-Adamantyl)phenyl]-2-(3-nitro-1H-1,2,4-triazol-1-yl)acetamide] | – | – | – | 200 ± 70 | 910 ± 190 | 35 | 7100 ± 300 | – | – | – | – |
| O=C(Cn1cnc([N+](=O)[O-])n1)Nc1ccccc1C12CC3CC(CC(C3)C1)C2 [7c, N-[2-(1-Adamantyl)phenyl]-2-(3-nitro-1H-1,2,4-triazol-1-yl)acetamide] | – | – | – | > 25000 | > 25000 | – | – | > 25000 | > 25000 | – | – |
| CSc1ccc(OCc2ncc([N+](=O)[O-])n2C)cc1 [Fxd, fexinidazole, reference compound] | – | – | – | 2400 ± 200 | – | – | – | – | – | – | – |
